Data from PubChem BioAssay AID1963862 (Molecular Pharmacology Branch, DTP, NCI, 2024).
Values joined by “and” are separate entries in the source; they are usually repeats but may differ in a detail not shown here. Identical values can stand only once. Active and inactive are the calls of the source. How the source made its calls: active means viability on the fitted dose curve at most 10% of control; inactive means the rest.

System: KRAS patient-derived spheroids with HUVEC/MSC, viability
Assay: Anticancer human tumor 941728-121-R-J1-PDC patient-derived lung adenocarcinoma cell line growth inhibition [KRAS2]
Conditions: for viability, T/C: stronger effect = lower value
In short: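 Combination screen of spheroid viability in tumor-cell co-cultures with endothelial (HUVEC) and mesenchymal stem cell stroma. Each agent was tested in half-log dilutions, topping at clinical Cmax or at 10 microM without a known Cmax.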

[1] = curve of first compound, second compound 0.1 µM
[2] = curve of first compound, second compound 0.316 µM
[3] = curve of first compound, second compound 1 µM
[4] = curve of first compound, second compound 3.16 µM
[5] = curve of first compound, second compound 10 µM
[6] = second compound 0.1 µM, first compound 0.01 µM
[7] = second compound 0.1 µM, first compound 0.0316 µM
[8] = second compound 0.1 µM, first compound 0.1 µM
[9] = second compound 0.1 µM, first compound 0.316 µM
[10] = second compound 0.1 µM, first compound 1 µM
[11] = second compound 0.316 µM, first compound 0.01 µM
[12] = second compound 0.316 µM, first compound 0.0316 µM
[13] = second compound 0.316 µM, first compound 0.1 µM
[14] = second compound 0.316 µM, first compound 0.316 µM
[15] = second compound 0.316 µM, first compound 1 µM
[16] = second compound 1 µM, first compound 0.01 µM
[17] = second compound 1 µM, first compound 0.0316 µM
[18] = second compound 1 µM, first compound 0.1 µM
[19] = second compound 1 µM, first compound 0.316 µM
[20] = second compound 1 µM, first compound 1 µM
[21] = second compound 3.16 µM, first compound 0.01 µM
[22] = second compound 3.16 µM, first compound 0.0316 µM
[23] = second compound 3.16 µM, first compound 0.1 µM
[24] = second compound 3.16 µM, first compound 0.316 µM
[25] = second compound 3.16 µM, first compound 1 µM
[26] = second compound 10 µM, first compound 0.01 µM
[27] = second compound 10 µM, first compound 0.0316 µM
[28] = second compound 10 µM, first compound 0.1 µM
[29] = second compound 10 µM, first compound 0.316 µM
[30] = second compound 10 µM, first compound 1 µM
[31] = curve of first compound, second compound 0.0316 µM
[32] = second compound 0.0316 µM, first compound 0.0316 µM
[33] = second compound 0.0316 µM, first compound 0.1 µM
[34] = second compound 0.0316 µM, first compound 0.316 µM
[35] = second compound 0.0316 µM, first compound 1 µM
[36] = second compound 0.0316 µM, first compound 3.16 µM
[37] = second compound 0.0316 µM, first compound 10 µM
[38] = second compound 0.1 µM, first compound 3.16 µM
[39] = second compound 0.1 µM, first compound 10 µM
[40] = second compound 0.316 µM, first compound 3.16 µM
[41] = second compound 0.316 µM, first compound 10 µM
[42] = second compound 1 µM, first compound 3.16 µM
[43] = second compound 1 µM, first compound 10 µM
[44] = second compound 3.16 µM, first compound 3.16 µM
[45] = second compound 3.16 µM, first compound 10 µM
[46] = second compound 10 µM, first compound 3.16 µM
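Wherever IC50 is given: spheroids exposed to agents for seven days before readout.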
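Wherever viability, T/C is given: spheroids exposed to agents for seven days before readout.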

CCN1CCN(Cc2ccc(Nc3ncc(F)c(-c4cc(F)c5nc(C)n(C(C)C)c5c4)n3)nc2)CC1 + COc1cc2nc(C)nc(NC(C)c3cc(N)cc(C(F)(F)F)c3)c2cc1OC1CCOC1
inactive: viability, T/C (second compound 0.1 µM, first compound 0.00316 µM) 45.9% | viability, T/C [6] 41% | viability, T/C [7] 34.2% | viability, T/C [8] 36.8% | viability, T/C [9] 42% | viability, T/C [10] 43.3% | viability, T/C (second compound 0.316 µM, first compound 0.00316 µM) 44.2% | viability, T/C [11] 35.3% | viability, T/C [12] 28.8% | viability, T/C [13] 31.7% | viability, T/C [14] 35.3% | viability, T/C [15] 40.8% | viability, T/C (second compound 1 µM, first compound 0.00316 µM) 27.8% | viability, T/C [16] 28.7% | viability, T/C [17] 28.5% | viability, T/C [18] 27.7% | viability, T/C [19] 22.1% | viability, T/C [20] 32.9% | viability, T/C (second compound 3.16 µM, first compound 0.00316 µM) 23.3% | viability, T/C [21] 22.7% | viability, T/C [22] 21.1% | viability, T/C [23] 19.5% | viability, T/C [24] 15.6% | viability, T/C [25] 14.5% | viability, T/C (second compound 10 µM, first compound 0.00316 µM) 17.2%
< 3.16 nM: IC50 [1] | IC50 [2] | IC50 [3] | IC50 [4] | IC50 [5]
active: viability, T/C [26] 6.08% | viability, T/C [27] 2.12% | viability, T/C [28] 0.46% | viability, T/C [29] 0.87% | viability, T/C [30] 0.85%

CCNC(=O)CC1N=C(c2ccc(Cl)cc2)c2cc(OC)ccc2-n2c(C)nnc21 (configuration not stated) + C=CC(=O)N1CCN(c2nc(OCC3CCCN3C)nc3c2CCN(c2cccc4cccc(C)c24)C3)CC1CC#N
< 31.6 nM: IC50 [31] | IC50 [1] | IC50 [3] | IC50 [4]
230 nM: IC50 [2]
active: viability, T/C [43] 10.6% | viability, T/C [22] 1.15% | viability, T/C [23] 1.91% | viability, T/C [24] 0.39% | viability, T/C [25] 1.58% | viability, T/C [44] 0.42% | viability, T/C [45] 0.35%
inactive: viability, T/C [32] 31.2% | viability, T/C [33] 33.5% | viability, T/C [34] 24.4% | viability, T/C [35] 20.3% | viability, T/C [36] 16.1% | viability, T/C [37] 14.9% | viability, T/C [7] 27.5% | viability, T/C [8] 26.7% | viability, T/C [9] 22.2% | viability, T/C [10] 16.4% | viability, T/C [38] 12.3% | viability, T/C [39] 15.4% | viability, T/C [12] 49.5% | viability, T/C [13] 66.1% | viability, T/C [14] 47% | viability, T/C [15] 39.8% | viability, T/C [40] 33.6% | viability, T/C [41] 33.7% | viability, T/C [17] 27.3% | viability, T/C [18] 28% | viability, T/C [19] 21.1% | viability, T/C [20] 16.2% | viability, T/C [42] 12%

COc1cc(Nc2ncc3c(n2)-c2ccc(Cl)cc2C(c2c(F)cccc2OC)=NC3)ccc1C(=O)O
inactive: viability, T/C (compound 1 µM) 63.3% [middle of 5 runs] | viability, T/C (compound 3.16 µM) 55% [middle of 5 runs] | viability, T/C (compound 10 µM) 50.9% [middle of 5 runs]

COc1cc(Nc2ncc3c(n2)-c2ccc(Cl)cc2C(c2c(F)cccc2OC)=NC3)ccc1C(=O)O + CNCc1ccccc1-c1csc(C(C)Nc2nc(C)nc3cc(OC)c(OC)cc23)c1
< 31.6 nM: IC50 [1] | IC50 [2] | IC50 [3] | IC50 [4] | IC50 [5]
inactive: viability, T/C [7] 48.4% | viability, T/C [8] 47.5% | viability, T/C [9] 37.5% | viability, T/C [10] 45.4% | viability, T/C [38] 47.6% | viability, T/C [39] 34.7% | viability, T/C [12] 44.2% | viability, T/C [13] 36% | viability, T/C [14] 32.6% | viability, T/C [15] 32.2% | viability, T/C [40] 36.4% | viability, T/C [41] 33.6% | viability, T/C [17] 31.4% | viability, T/C [18] 28.4% | viability, T/C [19] 27.3% | viability, T/C [20] 27.5% | viability, T/C [42] 25.6% | viability, T/C [43] 15.1%
active: viability, T/C [22] 0.4% | viability, T/C [23] 0.28% | viability, T/C [24] 0.18% | viability, T/C [25] 0.33% | viability, T/C [44] 0.26% | viability, T/C [45] 4.13% | viability, T/C [27] 0.15% | viability, T/C [28] 0.22% | viability, T/C [29] 0.1% | viability, T/C [30] 0.1% | viability, T/C [46] 0.11% | viability, T/C (second compound 10 µM, first compound 10 µM) 0.5%

Cn1nccc1Nc1nccc(-c2cc3c(s2)C(C)(C)N(CCN2CCOCC2)C3=O)n1
inactive: viability, T/C (compound 0.0316 µM) 90.5% [middle of 5 runs] | viability, T/C (compound 0.316 µM) 57.3% [middle of 5 runs] | viability, T/C (compound 1 µM) 48.8% [middle of 5 runs] | viability, T/C (compound 3.16 µM) 50.1% [middle of 5 runs] | viability, T/C (compound 10 µM) 51.3% [middle of 5 runs]

CC1COCCN1c1cc(-c2ccnn2C)c2ccnc(-c3ccn[nH]3)c2n1 (configuration not stated) + CC1OCC2(CCN(c3cnc(Sc4ccnc(N)c4Cl)c(N)n3)CC2)C1N
< 10 nM: IC50 [1] | IC50 [2] | IC50 [3] | IC50 [4] | IC50 [5]
inactive: viability, T/C [6] 43.9% | viability, T/C [7] 28.7% | viability, T/C [8] 27.2% | viability, T/C [9] 26.4% | viability, T/C [10] 25.4% | viability, T/C [38] 28.2% | viability, T/C [11] 32.9% | viability, T/C [12] 30.4% | viability, T/C [13] 25.3% | viability, T/C [14] 23.1% | viability, T/C [15] 19.9% | viability, T/C [40] 21.6% | viability, T/C [16] 29.5% | viability, T/C [17] 26.9% | viability, T/C [18] 26.5% | viability, T/C [19] 22.3% | viability, T/C [20] 15.8% | viability, T/C [42] 15.8% | viability, T/C [21] 26.8% | viability, T/C [22] 25.3% | viability, T/C [23] 22.4% | viability, T/C [24] 18.8% | viability, T/C [25] 15.9% | viability, T/C [44] 13.7% | viability, T/C [26] 25.4% | viability, T/C [27] 22.9% | viability, T/C [28] 19.2% | viability, T/C [29] 14.4% | viability, T/C [30] 12.9% | viability, T/C [46] 10.9%

CC1(C)CCC(CN2CCN(c3ccc(C(=O)NS(=O)(=O)c4ccc(NCC5CCOCC5)c([N+](=O)[O-])c4)c(Oc4cnc5[nH]ccc5c4)c3)CC2)=C(c2ccc(Cl)cc2)C1 + C=CC(=O)N1CCN(c2nc(OCC3CCCN3C)nc3c2CCN(c2cccc4cccc(C)c24)C3)CC1CC#N
< 31.6 nM: IC50 [31] | IC50 [1] | IC50 [2] | IC50 [3] | IC50 [4]
inactive: viability, T/C [32] 26.6% | viability, T/C [33] 26.4% | viability, T/C [34] 26.4% | viability, T/C [35] 24% | viability, T/C [36] 6% | viability, T/C [7] 26.5% | viability, T/C [8] 23.7% | viability, T/C [9] 24.9% | viability, T/C [10] 25.1% | viability, T/C [38] 5.88% | viability, T/C [12] 25.2% | viability, T/C [13] 25.5% | viability, T/C [14] 25% | viability, T/C [15] 25.8% | viability, T/C [40] 5.25% | viability, T/C [17] 22.6% | viability, T/C [18] 21.4% | viability, T/C [19] 21.4% | viability, T/C [20] 21.4%
active: viability, T/C [37] 4.38% | viability, T/C [39] 2.8% | viability, T/C [41] 3.74% | viability, T/C [42] 5.13% | viability, T/C [43] 1.61% | viability, T/C [22] 0.12% | viability, T/C [23] 0.13% | viability, T/C [24] 0.1% | viability, T/C [25] 0.09% | viability, T/C [44] 0.08% | viability, T/C [45] 0.12%

COc1cc2nccc(Oc3ccc(NC(=O)C4(C(=O)Nc5ccc(F)cc5)CC4)cc3)c2cc1OC
> 10000 nM and 2760 nM: IC50 (curve of compound)
inactive: viability, T/C (compound 0.0316 µM) 97.7% [middle of 5 runs] | viability, T/C (compound 0.316 µM) 83.8% [middle of 5 runs] | outcome (compound 10 µM)
